Like-named read-outs stand apart in the source and are kept apart here.
Assays:
[1] = tested on: MV-4-11 cells; test: Cell viability in MV-4-11 cells (CellTiter Glo2); assay type: cell-based; details: Homo sapiens, MV4-11, 96 h, 8-point dose response, 4 days
Description: Approximately 10,000 MV-4-11 cells per well of a 96-well plate were treated with DMSO (no drug control) or each compound in Tables E1 and E2 in an 8-point dose response for 4 days, Cell viability was measured using CellTiter Glo2. The ICse of each compound was determined using CDD Vault.

[2] = target: T1, NAMPT (Homo sapiens, UniProt P43490); test: NAMPT Activity Assay (Abcam #ab221819); assay type: biochemical; details: purified NAMPT, two-step reaction, OD450 nm; percent inhibition vs no drug; compound concentration not stated
T1 construct: purchased Abcam ab221819

[3] = CellTiter Glo2 (Table E2), read-out: MV-4-11 Cell Viability, MV-4-11 IC50
[4] = CellTiter Glo2 (Table E1), read-out: MV-4-11 IC50

T1 sequence (P43490 whole entry): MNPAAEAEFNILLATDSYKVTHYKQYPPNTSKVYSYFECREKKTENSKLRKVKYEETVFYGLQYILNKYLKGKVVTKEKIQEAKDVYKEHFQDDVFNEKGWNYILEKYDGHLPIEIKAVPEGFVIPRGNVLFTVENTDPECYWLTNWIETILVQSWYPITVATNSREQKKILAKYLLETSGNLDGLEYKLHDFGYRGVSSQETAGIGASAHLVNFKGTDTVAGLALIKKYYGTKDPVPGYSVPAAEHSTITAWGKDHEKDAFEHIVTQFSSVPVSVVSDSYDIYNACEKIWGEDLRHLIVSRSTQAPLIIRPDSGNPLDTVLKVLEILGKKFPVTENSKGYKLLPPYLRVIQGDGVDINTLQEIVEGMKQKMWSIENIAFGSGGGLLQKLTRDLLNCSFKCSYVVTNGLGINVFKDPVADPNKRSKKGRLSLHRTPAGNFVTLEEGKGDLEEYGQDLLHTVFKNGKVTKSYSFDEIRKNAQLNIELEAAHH

| Structure (SMILES) | IC50 [1, 3] [nM] | NAMPT Inhibition Code [2] | IC50 [1, 4] [nM] |
| --- | --- | --- | --- |
| CCCN(C(=O)CC)c1ccc(-c2ccc(C(=O)NCc3cccnc3)cn2)cc1 [Compound I-410, 6-[4-[propanoyl(propyl)amino]phenyl]-N-(3-pyridylmethyl)pyridine-3-carboxamide] | – | B (B = ≥33 to <66% inhibition) | 119 |
| CC(=O)N(CC(C)C)c1ccc(-c2ccc(C(=O)NCc3cccnc3)cc2)cc1 [Compound I-402, 4-[4-[acetyl(isobutyl)amino]phenyl]-N-(3-pyridylmethyl)benzamide] | – | C (C = ≥66% inhibition) | 58.7 |
| CC(=O)N(CC1CC1)c1ccc(-c2ccc(C(=O)NCc3cccnc3)cn2)cc1 [Compound I-421, 6-[4-[acetyl(cyclopropylmethyl)amino]phenyl]-N-(3-pyridylmethyl)pyridine-3-carboxamide] | – | B (B = ≥33 to <66% inhibition) | 117 |
| CC(=O)N(CC1COC1)c1ccc(-c2ccc(C(=O)NCc3cccnc3)cn2)cc1 [Compound I-447, 6-[4-[acetyl(oxetan-3-ylmethyl)amino]phenyl]-N-(3-pyridylmethyl)pyridine-3-carboxamide] | 493 | A (A = <33% inhibition) | – |
| CC(=O)N(CCC(F)(F)F)c1ccc(-c2ccc(C(=O)NCc3cccnc3)cn2)cc1 [Compound I-482, 6-[4-[Acetyl(3,3,3-trifluoropropyl)amino]phenyl]-N-(3-pyridylmethyl)pyridine-3-carboxamide] | 226 | B (B = ≥33 to <66% inhibition) | – |
| CCC(=O)N(C)c1ccc(-c2ccc(C(=O)Nc3nc(C)cs3)cn2)cc1 [Compound I-355, 6-[4-[methyl(propanoyl)amino]phenyl]-N-(4-methylthiazol-2-yl)pyridine-3-carboxamide] | – | A (A = <33% inhibition) | 2910 |
| CCC(=O)N(C)c1ccc(-c2ccc(C(=O)NCc3ccc(C)nc3)cn2)cc1C [Compound I-450] | 7630 | B (B = ≥33 to <66% inhibition) | – |
| CCC(=O)N(C)c1ccc(-c2ccc(C(=O)NCc3cccnc3C)cn2)cc1 [Compound I-392, 6-[4-[methyl(propanoyl)amino]phenyl]-N-[(2-methyl-3-pyridyl)methyl]pyridine-3-carboxamide] | – | A (A = <33% inhibition) | 6230 |
| CC(=O)CC(=O)N(c1ccc(-c2ccc(C(=O)NCc3cccnc3C)cn2)cc1C)C(C)C [Compound I-497, 6-(4-(N-isopropyl-3-oxobutanamido)-3-methylphenyl)-N-((2-methylpyridin-3-yl)methyl)nicotinamide] | 5720 | A (A = <33% inhibition) | – |
| Cc1cc(-c2ccc(C(=O)NCc3cccnc3C)cn2)ccc1N(C)C(=O)CC#N [Compound I-492, 6-[4-[(2-cyanoacetyl)-methyl-amino]-3-methyl-phenyl]-N-[(2-methyl-3-pyridyl)methyl]pyridine-3-carboxamide] | 6770 | A (A = <33% inhibition) | – |
| CCN(C(C)=O)c1ccc(-c2ccc(C(=O)NCc3cccnc3)cn2)cc1C [Compound I-430, 6-[4-[acetyl(ethyl)amino]-3-methyl-phenyl]-N-(3-pyridylmethyl)pyridine-3-carboxamide] | – | B (B = ≥33 to <66% inhibition) | 267 |
| CCC(=O)N(C)c1ccc(-c2ccc(C(=O)NCc3cccnc3Cl)cn2)cc1 [Compound I-395, N-[(2-chloro-3-pyridyl)methyl]-6-[4-[methyl(propanoyl)amino]phenyl]pyridine-3-carboxamide] | – | A (A = <33% inhibition) | 6110 |
| CCOC(=O)N(C)c1ccc(-c2ccc(C(=O)NCc3cccnc3)cn2)cc1 [Compound I-389, ethyl N-methyl-N-[4-[5-(3-pyridylmethylcarbamoyl)-2-pyridyl]phenyl]carbamate] | – | A (A = <33% inhibition) | 3170 |
| CC(=O)N(CC(C)C)c1ccc(-c2ccc(C(=O)NCc3cccnc3)cn2)cc1 [Compound I-404] | – | B (B = ≥33 to <66% inhibition) | 32 |
| CCC(=O)N(CCNC(=O)OC(C)(C)C)c1ccc(-c2ccc(C(=O)NCc3cccnc3)cc2)cc1 [Compound I-417, tert-butyl N-[2-[N-propanoyl-4-[4-(3-pyridylmethylcarbamoyl)phenyl]anilino]ethyl]carbamate] | – | A (A = <33% inhibition) | 105 |
| CCN(C(C)=O)c1ccc(-c2ccc(C(=O)NCc3cccnc3C)cn2)cc1Cl [Compound I-444, 6-[4-[acetyl(ethyl)amino]-3-chloro-phenyl]-N-[(2-methyl-3-pyridyl)methyl]pyridine-3-carboxamide] | – | A (A = <33% inhibition) | 1820 |

The remaining lines, values ahead:

| IC50 [1, 3] [nM] | NAMPT Inhibition Code [2] | IC50 [1, 4] [nM] | Structure (SMILES) |
| --- | --- | --- | --- |
| < 5.89 | C (C = ≥66% inhibition) | – | CC(=O)N(CC1CC(F)(F)C1)c1ccc(-c2ccc(C(=O)NCc3cccnc3)cn2)cc1Cl [Compound I-603, 6-[4-[Acetyl-[(3,3-difluorocyclobutyl)methyl]amino]-3-chloro-phenyl]-N-(3-pyridylmethyl)pyridine-3-carboxamide] |
| 67.2 | C (C = ≥66% inhibition) | – | CC(=O)N(CC(F)F)c1ccc(-c2ccc(C(=O)NCc3cccnc3)cn2)cc1Cl [Compound I-619, 6-[4-[Acetyl(2,2-difluoroethyl)amino]-3-chloro-phenyl]-N-(3-pyridylmethyl)pyridine-3-carboxamide] |
| 3.01 | C (C = ≥66% inhibition) | – | CC(C)N(C(=O)C(F)F)c1ccc(-c2ccc(C(=O)NCc3cccnc3)cn2)cc1Cl [Compound I-611, 6-[3-chloro-4-[(2,2-difluoroacetyl)-isopropyl-amino]phenyl]-N-(3-pyridylmethyl)pyridine-3-carboxamide] |
| 133 | B (B = ≥33 to <66% inhibition) | – | CC(=O)N(CCC(F)F)c1ccc(-c2ccc(C(=O)NCc3cccnc3)cn2)cc1C [Compound I-639, 6-[4-[Acetyl(3,3-difluoropropyl)amino]-3-methyl-phenyl]-N-(3-pyridylmethyl)pyridine-3-carboxamide] |
| 8.11 | C (C = ≥66% inhibition) | – | CC(=O)N(CC1COC1)c1ccc(-c2ccc(C(=O)NCc3cccnc3)cn2)cc1Cl [Compound I-620, 6-[4-[Acetyl(oxetan-3-ylmethyl)amino]-3-chloro-phenyl]-N-(3-pyridylmethyl)pyridine-3-carboxamide] |
| > 997 | C (C = ≥66% inhibition) | – | CC(=O)N(CC1CC1)c1ccc(-c2ccc(C(=O)Nc3cccnc3)cn2)cc1Cl [Compound I-683, 6-[4-[Acetyl(cyclopropylmethyl)amino]-3-chloro-phenyl]-N-(3-pyridyl)pyridine-3-carboxamide] |
| 1580 | B (B = ≥33 to <66% inhibition) | – | CC(=O)N(CC(F)F)c1ccc(-c2ccc(C(=O)NCc3cccnc3)cn2)cc1 [Compound I-631, 6-[4-[Acetyl(2,2-difluoroethyl)amino]phenyl]-N-(3-pyridylmethyl)pyridine-3-carboxamide] |
| 40 | B (B = ≥33 to <66% inhibition) | – | CC(=O)N(c1ccc(-c2ccc(C(=O)NCc3cccnc3)cc2)cc1C)C(C)C [Compound I-624, 4-[4-[Acetyl(isopropyl)amino]-3-methyl-phenyl]-N-(3-pyridylmethyl)benzamide] |
| 2.39 | C (C = ≥66% inhibition) | – | CC(=O)N(c1ccc(-c2ccc(C(=O)NCc3cccnc3)cn2)cc1Cl)C(C)C [Compound I-596, 6-[4-[Acetyl(isopropyl)amino]-3-chloro-phenyl]-N-(3-pyridylmethyl)pyridine-3-carboxamide] |
| 0.566 | C (C = ≥66% inhibition) | – | CC(=O)N(CC1CC1)c1ccc(-c2ccc(C(=O)NCc3ccc4nccn4c3)cn2)cc1Cl [Compound I-679, 6-[4-[Acetyl(cyclopropylmethyl)amino]-3-chloro-phenyl]-N-(imidazo[1,2-a]pyridin-6-ylmethyl)pyridine-3-carboxamide] |
| 341 | A (A = <33% inhibition) | – | CC(=O)N(CC1CC1)c1ccc(-c2ccc(C(=O)Nc3ccncc3)cn2)cc1Cl [Compound I-684, 6-[4-[Acetyl(cyclopropylmethyl)amino]-3-chloro-phenyl]-N-(4-pyridyl)pyridine-3-carboxamide] |
| 1830 | A (A = <33% inhibition) | – | COC(=O)NCCC(=O)N(C)c1ccc(-c2ccc(C(=O)NCc3cccnc3C)cn2)cc1C [Compound I-501, Methyl N-[3-[N,2-dimethyl-4-[5-[(2-methyl-3-pyridyl)methylcarbamoyl]-2-pyridyl]anilino]-3-oxo-propyl]carbamate] |
| 1470 | A (A = <33% inhibition) | – | Cc1cc(-c2ccc(C(=O)NCc3cccnc3)cn2)ccc1N(C)C(=O)CCN [Compound I-593, 6-[4-[3-aminopropanoyl(methyl)amino]-3-methyl-phenyl]-N-(3-pyridylmethyl)pyridine-3-carboxamide] |
| 7070 | A (A = <33% inhibition) | – | CCC(=O)N(C)c1ccc(-c2ccc(C(=O)NCc3cccnc3C(F)(F)F)cn2)cc1C [Compound I-511, 6-[3-Methyl-4-[methyl(propanoyl)amino]phenyl]-N-[[2-(trifluoromethyl)-3-pyridyl]methyl]pyridine-3-carboxamide] |
| 340 | C (C = ≥66% inhibition) | – | CC(=O)N(CC1CC1)c1ccc(-c2ccc(C(=O)NCc3cccnc3F)cn2)cc1Cl [Compound I-685, 6-[4-[Acetyl(cyclopropylmethyl)amino]-3-chloro-phenyl]-N-[(2-fluoro-3-pyridyl)methyl]pyridine-3-carboxamide] |

— patent publication US12612368B2 (Remedy Plan, Inc., priority 2019, dated 2026)
